According to patent US12221494B2, “Short synthetic peptides and their uses for treating retinal degenerative diseases and/or tissue injuries” (MacKay Memorial Hospital, priority 2019, dated 2025):

Key:
Neuro-2a cells = experiment: Glutamate-induced Neuro-2a cell death (LDH release); format: cell-based, mouse
Experimental: Neuro-2a cells were seeded in 48-well culture plates (1.5×10^5 cells/well) for 24 h, and then cultured in 0.5 ml fresh 2% FBS-DMEM medium containing 20 μM of the present peptide (7 μg of 6-mer in 0.5 ml medium) for further 4 h. Subsequently, 100 mM glutamate (from 1 M stock and PBS as solvent) was added to cells for further 6 h. Glutamate-induced cell death was quantitatively assessed by measuring lactate dehydrogenase (LDH) activity released into the culture medium by damaged cells. LDH activity was measured using PicoProbe™ LDH-Cytotoxicity Fluorometric Assay Kit (Catalog #K314-500; BioVision) according to the instruction manuals. LDH activity was estimated using an automated microplate reader (UVmax; Molecular Devices, San Francisco, CA) by measuring the fluorescent product (Ex/Em=535/587 nm).
Briefly, cells were pretreated with the designated peptide (i.e., any of SEQ ID NOs: 2 to 11) for 4 h and then treated with 100 mM glutamate for 6 h. The cell death was detected by a commercial lactate dehydrogenase (LDH) Cytotoxicity Assay Kit. Results are depicted in FIG. 1.

survivin mRNA = experiment: Real-time qPCR of survivin mRNA in C2C12 cells; format: cell-based, mouse; conditions: stimulated for 3 h
[1] = system: Sprague-Dawley rats, retinal ischemia/reperfusion (I/R) injury; experiment: Immunofluorescence staining of retinal microglia/astrocytes 14 days after I/R injury; format: in vivo; conditions: rat
Experimental: Experimental procedures were approved by the Mackay Memorial Hospital Review Board (Taiwan, R.O.C.). All surgeries were performed under aseptic conditions. Adult 10-week-old male Sprague-Dawley rats (initial body weight=312±11 g) were anesthetized by an intraperitoneal injection of xylazine (10 mg/kg). Peptide was dissolved in 0.85% normal saline to 1 mM and delivered by the subconjunctival injection of 100 μL peptide through a 31-Gneedle with a micro-syringe before the induction of I/R. Normal saline was as a vehicle control. Rat I/R was performed after peptide or vehicle injection for 4 h. Pupils were dilated with 0.5% tropicamide and 0.5% phenylephrine. Body temperature was maintained at 37° C. using a heating blanket After dilation of the pupil, the anterior chamber of the right eye was cannulated with a 27-gauge needle connected to a physiological saline reservoir. The intraocular pressure (IOP) was raised to 110 mmHg by keeping the reservoir at 150 cm above the eye, and retinal ischemia was confirmed by observing whitening of the iris and the loss of the red reflex of the retina. After 90 min of ischemia, the cannulating needle was withdrawn and the IOP was returned to normal pressure, resulting in recovery of the blood supply from the retinal artery and reperfusion injury induced. The reperfusion was evident by the return of the red reflex. Corneal analgesia was achieved using 1 or 2 drops of 0.4% oxybuprocaine hydrochloride, and Ofloxacin ophthalmic gel (0.3%) was applied topically to the eye before and after the procedure. […]
Deparaffinized retinal sections were blocked with 10% goat serum and 5% bovine serum albumin (BSA) in PBS containing 0.5% TritonX-100 (PBST) for 20 min at room temperature for blocking nonspecific staining. […] The slides were then rinsed with PBST three times, mounted with FluorSave™ reagent (Calbiochem) and viewed with an epifluorescence microscope (Zeiss Axioplan 2 imaging; Zeiss, Oberkochen, Germany) Three sections per eye were averaged and the mean of six eyes was recorded as the representative value for each group.

[2] = system: Sprague-Dawley rats, retinal ischemia/reperfusion (I/R) injury; experiment: Histological (H&E) evaluation of I/R-induced retinal injury (14 days); format: in vivo; conditions: rat, 14 days after I/R injury
Experimental: Experimental procedures were approved by the Mackay Memorial Hospital Review Board (Taiwan, R.O.C.). All surgeries were performed under aseptic conditions. Adult 10-week-old male Sprague-Dawley rats (initial body weight=312±11 g) were anesthetized by an intraperitoneal injection of xylazine (10 mg/kg). Peptide was dissolved in 0.85% normal saline to 1 mM and delivered by the subconjunctival injection of 100 μL peptide through a 31-Gneedle with a micro-syringe before the induction of I/R. Normal saline was as a vehicle control. Rat I/R was performed after peptide or vehicle injection for 4 h. Pupils were dilated with 0.5% tropicamide and 0.5% phenylephrine. Body temperature was maintained at 37° C. using a heating blanket After dilation of the pupil, the anterior chamber of the right eye was cannulated with a 27-gauge needle connected to a physiological saline reservoir. The intraocular pressure (IOP) was raised to 110 mmHg by keeping the reservoir at 150 cm above the eye, and retinal ischemia was confirmed by observing whitening of the iris and the loss of the red reflex of the retina. After 90 min of ischemia, the cannulating needle was withdrawn and the IOP was returned to normal pressure, resulting in recovery of the blood supply from the retinal artery and reperfusion injury induced. The reperfusion was evident by the return of the red reflex. Corneal analgesia was achieved using 1 or 2 drops of 0.4% oxybuprocaine hydrochloride, and Ofloxacin ophthalmic gel (0.3%) was applied topically to the eye before and after the procedure. Only the right eye was used in all experiments. A sham procedure was performed at left eye served as an intra-animal control.
Rats (n=6 in each group) were euthanized using an overdose of pentobarbital (intravenously 100 mg/kg of bodyweight) at 14 days after the I/R injury, the eyeballs were marked at the 12 o'clock position of the cornea with silk suture, and then enucleated and fixed in 4% paraformaldehyde(PFA) at 4° C. for 24 h. After fixation, the anterior segment was removed, and the posterior eyeball containing the optic disc was dehydrated in a graded ethanol series and embedded in paraffin. […] To quantify the degree of I/R damage in the retina, we measured the overall central retinal thicknesses (OT, between the GCL to ONL), the inner nuclear layer (INL), and the outer nuclear layer (ONL). The number of cells in the ganglion cell layer (GCL) was calculated using the linear cell density (cells per 200 μm). Three sections per eye were averaged and the mean of six eyes was recorded as the representative value for each group.

Substance: NH2-(D-Ser)-Leu-Gly-Ala-Glu-Gln-COOH (SLGAEQ; HELM PEPTIDE1{[dS].L.G.A.E.Q}$$$$V2.0; SMILES CC(C)C[C@H](NC(=O)[C@H](N)CO)C(=O)NCC(=O)N[C@@H](C)C(=O)N[C@@H](CCC(=O)O)C(=O)N[C@@H](CCC(N)=O)C(=O)O) [6-mer dS]
- glutamate-induced cell death (LDH release into the medium) (Neuro-2a cells; Neuro-2a cells, 20 μM peptide pretreatment 4 h, then 100 mM glutamate 6 h, solvent/glutamate control 7.6±0.8%): 1.5±0.5%
- protective effect on Neuro-2a cells (neuroprotective activity), in words (Neuro-2a cells; glutamate-induced cell death): exhibited protective effect on Neuro-2a cells
- level of survivin mRNA compared to solvent-treated cells (survivin mRNA): 2.6 fold
- activation of Iba-1-positive microglial cells and GFAP-positive astrocytes, in words [1]: less prominent
- Iba-1-positive Microglia ([1]; Control 3.3 ± 1.2, Vehicle + I/R 24.7 ± 1.6): 5.8 ± 1.0 /400 × field
- GFAP-positive astrocytes ([1]; Control 6.9 ± 2.0, Vehicle + I/R 28.6 ± 2.2): 10.3 ± 1.8 /400 × field
- INL Thickness ([2]; H&E, Control 70.7 ± 2.4, Vehicle + I/R 51.6 ± 0.8): 71.3 ± 7.5 μm
- ONL Thickness ([2]; H&E, Control 139.8 ± 4.2, Vehicle + I/R 125.8 ± 4.5): 133.4 ± 7.7 μm
- Total Thickness (From GCL to INL) ([2]; H&E, Control 326.2 ± 9.4, Vehicle + I/R 260.8 ± 7.1): 308.9 ± 11.2 μm
- overall retinal thickness, in words ([2]; single subconjunctival injection): improved the overall retinal thickness to a level similar to that in the shame control group
